In the data set the test system is MCF7. As to the kind of experiment: HRG-induced Akt activation (dPAkt = log2 pAkt/Akt HRG-stimulated minus log2 pAkt/Akt basal) (log2 ratio difference); higher = stronger HRG-induced Akt(T308) phosphorylation. To be noted: miRNA mimic concentration 10 nM; time after transfection 72 h; heregulin 10 ng/ml; stimulation time 1 h. The method, boiled down: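 MCF7 cells ([…], 96-well plates) were transfected with a library of 879 miRNA mimics at 10 nM final using Lipofectamine RNAiMax, in two biological replicates. After 72 h, cells were stimulated with 10 ng/ml heregulin-beta1 for 1 h or left unstimulated. They were fixed with 4% PFA, and phospho-Akt(T308) and total Akt were read by In-Cell Western on an Odyssey. Signals were corrected for column-wise fixation decay, and HRG-induced Akt activation is log2(pAkt/Akt) stimulated minus unstimulated, averaged over replicates.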

± gives the standard deviation of the averaged measurements.

As to CUGUAUGCCCUCACCGCUCA, the “HRG-induced Akt activation (log2)” value was determined as 2.27 ± 0.32.
In the case of CUGUGCGUGUGACAGCGGCUGA, the “HRG-induced Akt activation (log2)” value is 0.692 ± 0.043.
To CUGUUGCCACUAACCUCAACCU belongs 1.07 ± 0.11; to CUUAGCAGGUUGUAUUAUCAUU, 1.81 ± 0.098; to CUUAUCAGAUUGUAUUGUAAUU, 1.87 ± 0.024.
The figure for CUUAUGCAAGAUUCCCUUCUAC is 1.85 ± 0.23.
The figure for CUUCCUCGUCUGUCUGCCCC is 1.02 ± 0.055; for CUUCUUGUGCUCUAGGAUUGU it is 1.13 ± 0.024; for CUUGGCACCUAGCAAGCACUCA it is 1.45 ± 0.58.
In the case of CUUGGUUCAGGGAGGGUCCCCA, the “HRG-induced Akt activation (log2)” value came to 1.58 ± 0.43.
To CUUUCAGUCAGAUGUUUGCUGC belongs 1.67 ± 0.24.
To CUUUCAGUCGGAUGUUUACAGC belongs 1.62 ± 0.098; to CUUUCAGUCGGAUGUUUGCAGC, 1.75 ± 0.2.
To CUUUUUGCGGUCUGGGCUUGC belongs 2.31 ± 0.28.
With GAAAGCGCUUCCCUUUGCUGGA, the “HRG-induced Akt activation (log2)” value turned out to be 1.63 ± 0.082.
With GAAAGCGCUUCUCUUUAGAGG, the “HRG-induced Akt activation (log2)” value worked out at 1.51 ± 0.33.
The figure for GAAAGUGCUUCCUUUUAGAGGC is 0.832 ± 0.68; for GAAAUCAAGCGUGGGUGAGACC it is 1.77 ± 0.15.
The figure for GAACGCCUGUUCUUGCCAGGUGG is 1.4 ± 0.093; for GAACGCGCUUCCCUAUAGAGGGU it is 1.42 ± 0.13.
Turning to GAACGGCUUCAUACAGGAGUU, the “HRG-induced Akt activation (log2)” value was 1.67 ± 0.12.
GAAGGCGCUUCCCUUUAGAGCG: the “HRG-induced Akt activation (log2)” value is 1.1 ± 0.5.
Turning to GAAGGCGCUUCCCUUUGGAGU, the “HRG-induced Akt activation (log2)” value was 1.41 ± 0.095.
The figure for GAAGUGCUUCGAUUUUGGGGUGU is 1.12 ± 0.22.
For the sequence GAAGUGUGCCGUGGUGUGUCU, the “HRG-induced Akt activation (log2)” value amounted to 2.03 ± 0.31.
The figure for GAAGUUGUUCGUGGUGGAUUCG is 2.11 ± 0.022.
GAAUGUUGCUCGGUGAACCCCU: the “HRG-induced Akt activation (log2)” value was found to be 1.33 ± 0.039.
To GACACGGGCGACAGCUGCGGCCC belongs 1.03 ± 0.89.
Turning to GACCUGGACAUGUUUGUGCCCAGU, the “HRG-induced Akt activation (log2)” value worked out at 1.71 ± 0.12.
The figure for GACUAUAGAACUUUCCCCCUCA is 1.07 ± 0.064.
As for GACUGACACCUCUUUGGGUGAA, the “HRG-induced Akt activation (log2)” value stood at 1.49 ± 0.18.
To GAGCCAGUUGGACAGGAGC belongs 1.77 ± 0.38; to GAGCUUAUUCAUAAAAGUGCAG, 1.76 ± 0.036.
To GAGGGUCUUGGGAGGGAUGUGAC belongs 1.44 ± 0.081; to GAGGGUUGGGUGGAGGCUCUCC, 1.47 ± 0.36.
To GAGUGCCUUCUUUUGGAGCGUU belongs 1.04 ± 0.043; to GAUGAGCUCAUUGUAAUAUGAG, 1.71 ± 0.24.
In the case of GAUGAUGAUGGCAGCAAAUUCUGAAA, the “HRG-induced Akt activation (log2)” value turned out to be 1.87 ± 0.33.
The figure for GAUGAUGCUGCUGAUGCUG is 1.07 ± 0.52.
For the sequence GAUUAGGGUGCUUAGCUGUUAA, the “HRG-induced Akt activation (log2)” value is 1.67 ± 0.28.
The figure for GAUUGCUCUGCGUGCGGAAUCGAC is 1.24 ± 0.29.
The figure for GAUUUCAGUGGAGUGAAGUUC is 1.744 ± 0.0085; for GCAAAGCACACGGCCUGCAGAGA it is 1.27 ± 0.08; for GCAGCAGAGAAUAGGACUACGUC it is 1.7 ± 0.032.
Consider GCAGGAACUUGUGAGUCUCCU, for which the “HRG-induced Akt activation (log2)” value is 1.8 ± 0.32.
With GCAGUCCAUGGGCAUAUACAC, the “HRG-induced Akt activation (log2)” value was 1.66 ± 0.12.
The figure for GCAUGGGUGGUUCAGUGG is 1.52 ± 0.11; for GCCCAAAGGUGAAUUUUUUGGG it is 1.33 ± 0.1; for GCCCCUGGGCCUAUCCUAGAA it is 1.25 ± 0.56.
Turning to GCCCGCGUGUGGAGCCAGGUGU, the “HRG-induced Akt activation (log2)” value was 1.39 ± 0.14.
To GCCCUCCGCCCGUGCACCCCG belongs 1.17 ± 0.14; to GCCUGCUGGGGUGGAACCUGGU, 1.81 ± 0.22.
As for GCGACCCACUCUUGGUUUCCA, the “HRG-induced Akt activation (log2)” value is 1.8 ± 0.034.
The figure for GCGACCCAUACUUGGUUUCAG is 1.44 ± 0.25.
As for GCGAGGACCCCUCGGGGUCUGAC, the “HRG-induced Akt activation (log2)” value was determined as 1.05 ± 0.48.
Turning to GCUACUUCACAACACCAGGGCC, the “HRG-induced Akt activation (log2)” value worked out at 1.67 ± 0.3.
To GCUAGUCCUGACUCAGCCAGU belongs 2.19 ± 0.26; to GCUAUUUCACGACACCAGGGUU, 1.693 ± 0.0017.
As to GCUGACUCCUAGUCCAGGGCUC, the “HRG-induced Akt activation (log2)” value turned out to be 1.53 ± 0.099.
To GCUGCGCUUGGAUUUCGUCCCC belongs 1.62 ± 0.098; to GCUGGGCAGGGCUUCUGAGCUCCUU, 1.68 ± 0.082.
Take GCUGGUUUCAUAUGGUGGUUUAGA: the “HRG-induced Akt activation (log2)” value came out at 1.82 ± 0.049.
The figure for GGAGAAAUUAUCCUUGGUGUGU is 0.932 ± 0.022; for GGAGACGCGGCCCUGUUGGAGU it is 1.33 ± 0.052; for GGAGGGGUCCCGCACUGGGAGG it is 1.82 ± 0.057.
To GGAUAUCAUCAUAUACUGUAAG belongs 1.6 ± 0.044; to GGAUUCCUGGAAAUACUGUUCU, 1.2 ± 0.74.
On to GGCAGGUUCUCACCCUCUCUAGG, for which the “HRG-induced Akt activation (log2)” value came to 2.11 ± 0.13.
For GGCGGAGGGAAGUAGGUCCGUUGGU, the “HRG-induced Akt activation (log2)” value came to 1.52 ± 0.058.
The figure for GGCUACAACACAGGACCCGGGC is 1.88 ± 0.32; for GGCUAGCAACAGCGCUUACCU it is 0.933 ± 0.081.
To GGGAGCCAGGAAGUAUUGAUGU belongs 1.82 ± 0.069.
Take GGGCGACAAAGCAAGACUCUUUCUU: the “HRG-induced Akt activation (log2)” value amounted to 1.56 ± 0.061.
For the sequence GGGCGCCUGUGAUCCCAAC, the “HRG-induced Akt activation (log2)” value amounted to 1.62 ± 0.015.
On to GGGGAGCUGUGGAAGCAGUA, for which the “HRG-induced Akt activation (log2)” value was determined as 1.73 ± 0.21.
Regarding GGGGGUCCCCGGUGCUCGGAUC, the “HRG-induced Akt activation (log2)” value is 1.7 ± 0.064.
Regarding GGGGUUCCUGGGGAUGGGAUUU, the “HRG-induced Akt activation (log2)” value was found to be 1.21 ± 0.3.
In the case of GGGUGGGGAUUUGUUGCAUUAC, the “HRG-induced Akt activation (log2)” value was found to be 1.16 ± 0.097.
On to GGUCCAGAGGGGAGAUAGGUUC, for which the “HRG-induced Akt activation (log2)” value was 1.67 ± 0.24.
For GGUGCAGUGCUGCAUCUCUGGU, the “HRG-induced Akt activation (log2)” value came to 1.28 ± 0.0016.
To GGUGGCCCGGCCGUGCCUGAGG belongs 1.55 ± 0.26; to GGUUUGGUCCUAGCCUUUCUA, 1.47 ± 0.2; to GUAGAGGAGAUGGCGCAGGG, 1.33 ± 0.22.
The figure for GUAGAUUCUCCUUCUAUGAGUA is 1.35 ± 0.17; for GUCAGCGGAGGAAAAGAAACU it is 1.47 ± 0.037.
The figure for GUCAUACACGGCUCUCCUCUCU is 0.922 ± 0.81.
Consider GUCCAGUUUUCCCAGGAAUCCCU, for which the “HRG-induced Akt activation (log2)” value amounted to 1.7 ± 0.2.
Consider GUCCCUCUCCAAAUGUGUCUUG, for which the “HRG-induced Akt activation (log2)” value came to 0.988 ± 0.27.
As to GUCCCUGUUCAGGCGCCA, the “HRG-induced Akt activation (log2)” value was found to be 1.73 ± 0.15.
As for GUCCGCUCGGCGGUGGCCCA, the “HRG-induced Akt activation (log2)” value is 1.34 ± 0.29.
For GUGAAAUGUUUAGGACCACUAG, the “HRG-induced Akt activation (log2)” value was 1.97 ± 0.049.
The figure for GUGAACGGGCGCCAUCCCGAGG is 1.9231 ± 0.00011; for GUGAAUUACCGAAGGGCCAUAA it is 1.03 ± 0.12; for GUGACAUCACAUAUACGGCAGC it is 1.08 ± 0.31.
The figure for GUGAGGACUCGGGAGGUGG is 1.19 ± 0.87.
Turning to GUGAGGGCAUGCAGGCCUGGAUGGGG, the “HRG-induced Akt activation (log2)” value is 1.43 ± 0.21.
The figure for GUGAGUCUCUAAGAAAAGAGGA is 1.56 ± 0.38.
The figure for GUGCAUUGCUGUUGCAUUGC is 1.178 ± 0.00052; for GUGCAUUGUAGUUGCAUUGCA it is 1.43 ± 0.074; for GUGCCAGCUGCAGUGGGGGAG it is 0.883 ± 0.036.
GUGGCUGCACUCACUUCCUUC: the “HRG-induced Akt activation (log2)” value stood at 1.16 ± 0.076.
The figure for GUGGGCGGGGGCAGGUGUGUG is 1.13 ± 0.44.
To GUGGGGGAGAGGCUGUC belongs 1.33 ± 0.25.
To GUGGGUACGGCCCAGUGGGGGG belongs 1.24 ± 0.18; to GUGUCUGCUUCCUGUGGGA, 2.6 ± 0.069.
For the sequence GUGUCUGGGCGGACAGCUGC, the “HRG-induced Akt activation (log2)” value is 1.87 ± 0.23.
To GUGUCUUUUGCUCUGCAGUCA belongs 1.75 ± 0.15.
On to GUGUGCGGAAAUGCUUCUGCUA, for which the “HRG-induced Akt activation (log2)” value is 1.18 ± 0.2.
To GUGUGUGGAAAUGCUUCUGC belongs 2.16 ± 0.41; to GUGUUAAUUAAACCUCUAUUUAC, 1.76 ± 0.034.
On to GUGUUGAAACAAUCUCUACUG, for which the “HRG-induced Akt activation (log2)” value came to 1.53 ± 0.25.
The figure for GUUCAAAUCCAGAUCUAUAAC is 1.08 ± 0.18; for GUUCUCCCAACGUAAGCCCAGC it is 1.62 ± 0.15; for GUUGGAGGAUGAAAGUACGGAGUGAU it is 0.878 ± 1.2.
The figure for GUUGUGUCAGUUUAUCAAAC is 1.54 ± 0.089.
The figure for GUUUGCACGGGUGGGCCUUGUCU is 1.88 ± 0.072.
Consider UAAAGAGCCCUGUGGAGACA, for which the “HRG-induced Akt activation (log2)” value came to 1.58 ± 0.083.
To UAAAGUAAAUAUGCACCAAAA belongs 1.45 ± 0.18.

The record behind these values is the supplement of paper PMC4314810.
